Here are results for 21 compounds from ChEMBL document CHEMBL1126970, “Development of 1,4-benzodiazepine cholecystokinin type B antagonists” (J Med Chem, 1993).

Experiment [1] concerns the target T1, Cholecystokinin receptor type A (Rattus norvegicus) (UniProt P30551).
T1 sequence (whole entry): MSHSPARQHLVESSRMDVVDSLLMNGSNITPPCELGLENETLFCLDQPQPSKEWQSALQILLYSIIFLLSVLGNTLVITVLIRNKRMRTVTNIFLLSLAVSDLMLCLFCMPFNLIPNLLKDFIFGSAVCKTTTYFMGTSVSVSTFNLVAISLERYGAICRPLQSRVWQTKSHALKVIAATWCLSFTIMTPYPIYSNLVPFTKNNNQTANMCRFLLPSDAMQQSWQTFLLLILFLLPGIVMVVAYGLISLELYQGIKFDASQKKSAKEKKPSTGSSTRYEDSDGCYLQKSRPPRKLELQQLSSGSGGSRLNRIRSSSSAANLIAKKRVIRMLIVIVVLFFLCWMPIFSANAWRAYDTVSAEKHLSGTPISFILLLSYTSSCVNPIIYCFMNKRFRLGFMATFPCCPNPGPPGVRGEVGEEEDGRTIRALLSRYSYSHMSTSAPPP
Description: (§1) Inhibition of binding of [125I]CCK-8 to cholecystokinin type A receptor in rat pancreatic tissue. Set-up: concentration or dose not given beside the values. Conditions: concentration not given here.

For another experiment, the species on record is Cavia porcellus. Nature of the experiment: Selectivity ratio between CCK-B and CCK-A receptor. More on the design: reference not given here.
Experiment [2] addresses T2, Cholecystokinin receptor type A (Rattus norvegicus, UniProt P30551).
T2 sequence (P30551 whole entry): T1 sequence (whole entry)
Described as §1.

Bounds are passed on as bounds.

The compound `CN1C(=O)C(NC(=O)Nc2ccc(Cl)nc2)N=C(c2ccccc2)c2ccccc21` (configuration not stated) gave an inhibition in experiment [1] of 23%. In addition, the Selectivity ratio in the experiment listed under Cavia porcellus was greater than 65.

On to `CCN(CC)C[C@H](O)CN1C(=O)C(NC(=O)Nc2ccc(Cl)cc2)N=C(c2ccccc2)c2ccccc21` (mixture of isomers), for which the inhibition in experiment [1] was greater than 14%. Besides, in the experiment listed under Cavia porcellus, the Selectivity ratio was greater than 7.

Consider `O=C(Nc1ccc(Cl)cc1)NC1N=C(c2ccccc2)c2ccccc2N(C[C@@H](O)CCl)C1=O` (mixture of isomers), for which the inhibition in experiment [1] was greater than 15%. Further, the Selectivity ratio in the experiment listed under Cavia porcellus was greater than 500.

`O=C(Nc1ccc(Cl)cc1)NC1N=C(c2ccccc2)c2ccccc2N(C[C@@H](O)CO)C1=O` (mixture of isomers) returned an inhibition in experiment [1] greater than 9%. Also, the Selectivity ratio in the experiment listed under Cavia porcellus was greater than 30.

In experiment [1], `CN1C(=O)C(NC(=O)Nc2ccc3c(c2)OCO3)N=C(c2ccccc2)c2ccccc21` (configuration not stated) had an inhibition greater than 3%. In the experiment listed under Cavia porcellus, the Selectivity ratio was greater than 100.

For `CN1C(=O)[C@H](NC(=O)Nc2cccc(I)c2)N=C(c2ccccc2)c2ccccc21`, the Selectivity ratio in the experiment listed under Cavia porcellus worked out at 116. Further, the half-inhibitory concentration (IC50) in experiment [2] came to 800 nM.

With `CC(=O)c1cccc(NC(=O)NC2N=C(c3ccccc3)c3ccccc3N(C)C2=O)c1` (configuration not stated), in the experiment filed under Cavia porcellus, the Selectivity ratio is 361. The IC50 in experiment [2] was determined as 1300 nM.

Consider `Cc1cccc(NC(=O)NC2N=C(c3ccccc3)c3ccccc3N(CC(=O)ON3CCC[C@@H]3C(=O)O)C2=O)c1` (mixture of isomers), for which, in the experiment filed under Cavia porcellus, the Selectivity ratio amounted to 15. In experiment [2], this compound registered an IC50 of 20000 nM.

For `CN1C(=O)[C@H](NC(=O)Nc2cccc(N)c2)N=C(c2ccccc2)c2ccccc21`, in the experiment listed under Cavia porcellus, the Selectivity ratio was found to be 131. Also, the IC50 in experiment [2] was 4330 nM.

With `CN1C(=O)C(NC(=O)Nc2cccc(CNC(=O)OC(C)(C)C)c2)N=C(c2ccccc2)c2ccccc21` (configuration not stated), the Selectivity ratio in the experiment listed under Cavia porcellus is 1. The compound further came in with an IC50 in experiment [2] of 200 nM.

With `COc1cccc(NC(=O)NC2N=C(c3ccccc3)c3ccccc3N(CCC(=O)O)C2=O)c1` (racemic), the Selectivity ratio in the experiment listed under Cavia porcellus was determined as 0.036. This compound came in with an IC50 in experiment [2] of 9 nM.

Turning to `COC(=O)[C@H]1CCCN1OC(=O)CN1C(=O)C(NC(=O)Nc2cccc(OC)c2)N=C(c2ccccc2)c2ccccc21` (mixture of isomers), in the experiment filed under Cavia porcellus, the Selectivity ratio is 144. Also, in experiment [2], the IC50 is 1400 nM.

For the compound `Cc1cccc(NC(=O)NC2N=C(c3ccccc3)c3ccncc3N(C)C2=O)c1` (racemic), in the experiment filed under Cavia porcellus, the Selectivity ratio is less than 0.01. For the same compound, the 50% inhibitory concentration (IC50) in experiment [2] was determined as 144 nM.

In the case of `CN1C(=O)C(NC(=O)Nc2ccncc2)N=C(c2ccccc2)c2ccccc21` (racemic), the Selectivity ratio in the experiment filed under Cavia porcellus turned out to be 1.4. In addition, in experiment [2], the IC50 was determined as 1510 nM.

With `C=Cc1cccc(NC(=O)N[C@@H]2N=C(c3ccccc3)c3ccccc3N(C)C2=O)c1`, in the experiment listed under Cavia porcellus, the Selectivity ratio came to 48. The compound also gave an IC50 in experiment [2] of 1670 nM.

In the case of `CN1C(=O)[C@H](NC(=O)Nc2cccc(CN)c2)N=C(c2ccccc2)c2ccccc21`, in the experiment filed under Cavia porcellus, the Selectivity ratio was 0.22. In addition, the IC50 in experiment [2] turned out to be 160 nM.

With `CN1C(=O)C(NC(=O)Nc2cccc3ccccc23)N=C(c2ccccc2)c2ccccc21` (racemic), the Selectivity ratio in the experiment filed under Cavia porcellus was 0.9. Further, the IC50 in experiment [2] was determined as 68 nM.

With `CN1C(=O)C(NC(=O)Nc2cccc(C(=O)O)c2)N=C(c2ccccc2)c2ccccc21` (racemic), the Selectivity ratio in the experiment filed under Cavia porcellus amounted to 1.4. Also, the IC50 in experiment [2] is 14 nM.

Regarding `Cc1cccc(NC(=O)N[C@@H]2N=C(c3ccccc3)c3ccccc3NC2=O)c1`, the Selectivity ratio in the experiment filed under Cavia porcellus worked out at 95. The compound further gave an IC50 in experiment [2] of 3800 nM.

Regarding `COc1cccc(NC(=O)NC2N=C(c3ccccc3)c3ccccc3N(CC(=O)N3CCCC3)C2=O)c1` (racemic), the Selectivity ratio in the experiment filed under Cavia porcellus came out at 708. The IC50 in experiment [2] amounted to 170 nM.

The compound `O=C(Nc1ccc(Cl)cc1)NC1N=C(c2ccccc2)c2ccccc2N(C[C@@H](O)CN2CCCC2)C1=O` (mixture of isomers) came in with an inhibition in experiment [1] greater than 16%. For the same compound, the Selectivity ratio in the experiment listed under Cavia porcellus was greater than 10.
